Where a name gives a salt, the structure may show the parent alone. Read-outs that look alike come from different tables or passages of the source. Each block holds one compound with its values, some of them ahead of it.
Tests used:
[1] = molecular target: T1, Maltase Glucoamylase (MGA) (Homo sapiens, UniProt O43451); experiment: Inhibition of recombinant human maltase glucoamylase (MGA), maltose substrate, glucose oxidase readout; format: biochemical; conditions: for Ki: maltose substrate, 100 mM MES buffer pH 6.5, 37° C., read-out: Ki value against recombinant human maltase glucoamylase (MGA); for IC50: read-out: IC50 value against recombinant human MGA
Procedure: Enzyme Activity Assay. Analysis of MGA inhibition was performed using maltose as the substrate, and measuring the release of glucose. Reactions were carried out in 100 mM MES buffer pH 6.5 at 37° C. for 15 min. The reaction was stopped by boiling for 3 min. 20 μL aliquots were taken and added to […] of glucose oxidase assay reagent (Sigma) in a 96-well plate. Reactions were developed for 1 hour and absorbance was measured at 450 nm to determine the amount of glucose produced by MGA activity in the reaction. One unit of activity is defined as the hydrolysis of one […] of maltose per minute. All reactions were performed in triplicate and absorbance measurements were averaged to give a final result.
The program GraFit 4.0.14 was used to fit the data to the Michaelis-Menten equation and estimate the kinetic parameters, Km and Vmax, of the enzyme. Ki values for each inhibitor were determined by measuring the rate of maltose hydrolysis by MGA at varying inhibitor concentrations. Data were plotted in Lineweaver-Burk plots (1/rate vs. 1/[substrate]) and Ki values were determined by the equation Ki=Km[I]/(Vmax)m−Km, where “m” is the slope of the line. The Ki reported for each inhibitor was estimated by averaging the Ki values obtained from each of the different inhibitor concentrations.
Target sequence in this assay (O43451 87-954 limits assumed): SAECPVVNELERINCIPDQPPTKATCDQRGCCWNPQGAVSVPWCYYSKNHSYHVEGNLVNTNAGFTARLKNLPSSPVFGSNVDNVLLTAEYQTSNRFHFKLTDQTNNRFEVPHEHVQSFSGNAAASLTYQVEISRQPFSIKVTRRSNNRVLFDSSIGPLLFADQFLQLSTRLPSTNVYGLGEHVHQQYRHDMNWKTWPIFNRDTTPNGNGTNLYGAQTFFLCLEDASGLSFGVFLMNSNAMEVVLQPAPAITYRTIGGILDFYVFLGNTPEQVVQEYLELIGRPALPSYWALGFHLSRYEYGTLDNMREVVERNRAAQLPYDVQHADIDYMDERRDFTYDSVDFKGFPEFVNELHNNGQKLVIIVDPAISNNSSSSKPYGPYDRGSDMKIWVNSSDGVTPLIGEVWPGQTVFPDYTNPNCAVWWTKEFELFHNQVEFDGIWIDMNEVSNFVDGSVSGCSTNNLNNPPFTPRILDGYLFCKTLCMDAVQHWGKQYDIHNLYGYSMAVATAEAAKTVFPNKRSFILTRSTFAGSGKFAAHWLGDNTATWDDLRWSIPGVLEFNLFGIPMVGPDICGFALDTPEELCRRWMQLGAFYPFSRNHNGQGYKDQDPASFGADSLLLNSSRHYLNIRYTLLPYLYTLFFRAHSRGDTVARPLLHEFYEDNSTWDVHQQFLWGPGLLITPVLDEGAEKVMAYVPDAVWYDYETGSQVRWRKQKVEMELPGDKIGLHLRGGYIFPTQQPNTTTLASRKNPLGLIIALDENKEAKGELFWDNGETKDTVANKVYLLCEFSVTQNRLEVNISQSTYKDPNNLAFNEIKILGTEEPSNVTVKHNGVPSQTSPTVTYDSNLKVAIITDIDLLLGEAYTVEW

[2] = molecular target: T2, glucoamylase G2 form from Aspergillus niger (Aspergillus niger, UniProt P69328); experiment: Inhibition of glucoamylase G2-catalyzed hydrolysis of maltose; format: biochemical
T2 construct: purchased Novo Nordisk, Bagsvaerd, Denmark
Procedure: The glucoamylase G2 form from Aspergillus niger was purified from a commercial enzyme (Novo Nordisk, Bagsvaerd, Denmark) as described.^19,20 The initial rates of glucoamylase G2-catalyzed hydrolysis of maltose was tested with 1 mM maltose as substrate in 0.1 M sodium acetate pH 4.5 at 45° C. using an enzyme concentration of 7.0×10^−8 M and five inhibitor concentrations in the range 1 μm-5 mM. The effect of the inhibition on rates of substrate hydrolysis were compared for the different compounds.

[3] = molecular target: T3, porcine pancreatic α-amylase (PPA) (Sus scrofa, UniProt P00690); experiment: Inhibition of porcine pancreatic α-amylase activity towards DP17 amylose; format: biochemical
T3 construct: purchased Sigma
T3 sequence (P00690 16-511): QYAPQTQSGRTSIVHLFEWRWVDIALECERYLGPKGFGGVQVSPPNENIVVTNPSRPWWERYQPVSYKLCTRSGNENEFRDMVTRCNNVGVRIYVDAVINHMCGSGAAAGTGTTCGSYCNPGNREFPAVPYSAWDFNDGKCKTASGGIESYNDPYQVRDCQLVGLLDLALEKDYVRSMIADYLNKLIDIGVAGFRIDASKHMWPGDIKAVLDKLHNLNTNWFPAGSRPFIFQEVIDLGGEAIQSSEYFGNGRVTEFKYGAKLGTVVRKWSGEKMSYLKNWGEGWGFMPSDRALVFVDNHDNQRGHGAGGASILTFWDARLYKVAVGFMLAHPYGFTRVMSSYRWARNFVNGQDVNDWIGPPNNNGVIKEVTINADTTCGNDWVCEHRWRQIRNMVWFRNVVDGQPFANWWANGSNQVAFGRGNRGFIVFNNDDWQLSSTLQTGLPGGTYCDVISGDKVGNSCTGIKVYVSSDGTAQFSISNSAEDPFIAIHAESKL
Description: (§1) Porcine pancreatic α-amylase (PPA) and bovine serum albumin (BSA) were purchased from Sigma. Amylose EX-1 (DP17; average degree of polymerization 17) was purchased from Hayashibara Chemical Laboratories (Okayama, Japan). Recombinant barley α-amylase isozyme 1 (AMY1) was produced and purified as described.^23 An aliquot of the porcine pancreatic x-amylase (PPA) crystalline suspension (in ammonium sulfate) was dialyzed extensively against the assay buffer without BSA. The enzyme concentration was determined by aid of amino acid analysis as determined using an LKB model Alpha Plus amino acid analyzer. […] Six different final inhibitor concentrations were used in the range 1 μM-5 mM. The inhibitor was pre-incubated with enzyme for 5 min at 37° C. before addition of substrate.

[4] = molecular target: T4, Recombinant barley α-amylase isozyme 1 (AMY1) (Hordeum vulgare, UniProt P00693); experiment: Inhibition of barley α-amylase isozyme 1 activity towards DP17 amylose; format: biochemical
T4 construct: made in house
Description: as §1

Sprague-Dawley rats = experiment: In vivo maltose gavage in catheterized rats: plasma glucose and insulin; set-up: species or system rat; conditions: maltose gavage 1000 mg/kg with 25 mg/kg drug
Procedure: Five week old Sprague-Dawley rats were housed singly under a 12:12-h light-dark photoperiod and given free access to water and rat chow (Purina rodent chow). After one week of acclimation, chronic indwelling catheters were implanted.
Animals were anesthetized with a combination of Ketamine-Xylazine-Butorphanol (0.1 ml/100 g im). Analgesic (Butorphenol, 1 mg/kg sc) was administered following recovery from anesthesia and the following morning. Antibiotic was administered by one dose sc and in the drinking water for 4 days post-operative (Baytril, 5 mg/kg sc, Bayer, Toronto, Canada; Baytril, 50 mg/ml: 0.36 ml solution in 250 ml drinking water). A sterile catheter (Intramedic PE-50 with ˜3 cm beveled Silastic tip) was placed in the left carotid artery and the distal end of the catheter was tunneled subcutaneously, exteriorized, and anchored at the nape of the neck. The catheters were protected from chewing by a stainless steel tether connected to a swivel system which allowed free movement of the animal and easy access to the catheter by the investigator.
The animals were allowed to recover for 1 week. Experiments were performed on conscious, unrestrained animals that had been fasted overnight by removal of chow from the cage hoppers at 2100. At 0800 the following morning animals were weighed and Atropine (0.05 mg/kg sc) was administered as a […]. At baseline, animals were administered a bolus of maltose by oral gavage (1000 mg/kg body weight) with or without drug (25 mg/kg body weight for all agents). Blood samples (0.1 mL) were taken via the implanted carotid line at -15 and -5 min for the baseline and at 7, 15, 30, 60, 90, 120, 210, 300 min.
Blood samples were kept on ice in microcentrifuge tubes and then were centrifuged. The plasma was stored at −20° C. until it was assayed. Plasma volume was triple replaced with heparinized saline (10u/mL), but red blood cells were not reinfused. Plasma glucose was assayed with the glucose oxidase method (Trinder RAICHEM Division of Hemagen Diagnostics, Inc. San Diego, Calif.). Plasma insulin concentrations were measured by rat insulin ELISA (Crystal Chem INC, Downers Grove, Ill.). Six experiments were performed for each treatment (control, Blintol, Acarbose, Salacinol).
All data are presented as means±SE. The significance of changes in plasma glucose and insulin were tested by two-way repeated-measures analysis of variance and were performed with the Statistical Analysis System for Windows (version 6.3, SAS Institute, Cary, N.C.). AUCs were compared using unpaired t-tests.

[5] = molecular target: T1, Maltase Glucoamylase (MGA); experiment: MGA activity in extracts of COS cells transfected with MGA5′ (maltase subunit) construct, maltose hydrolysis, glucose oxidase colorimetric assay; format: biochemical; set-up: COS cells transfected with MGA5′ (maltase subunit clone 10) construct were used; expressed in transfected cells; host or cells: COS cells
Procedure: In the assays, COS cells transfected with MGA5′ (maltase subunit clone 10) construct were used. Activity measurements were performed with cell extracts containing MGA. Maltose hydrolysis was monitored by measurement of the glucose released by a glucose oxidase colorimetric assay. Inhibition of this hydrolysis was measured as a reduction in OD reading.
In practice, an OD reading in the absence of the inhibitor was recorded, followed by a reading in the presence of the inhibitor. The percent reduction in OD reading upon administering a candidate inhibitor (see Table 11) was then correlated with a percent inhibition for a given concentration.
Target sequence in this assay (O43451 356-737 limits assumed): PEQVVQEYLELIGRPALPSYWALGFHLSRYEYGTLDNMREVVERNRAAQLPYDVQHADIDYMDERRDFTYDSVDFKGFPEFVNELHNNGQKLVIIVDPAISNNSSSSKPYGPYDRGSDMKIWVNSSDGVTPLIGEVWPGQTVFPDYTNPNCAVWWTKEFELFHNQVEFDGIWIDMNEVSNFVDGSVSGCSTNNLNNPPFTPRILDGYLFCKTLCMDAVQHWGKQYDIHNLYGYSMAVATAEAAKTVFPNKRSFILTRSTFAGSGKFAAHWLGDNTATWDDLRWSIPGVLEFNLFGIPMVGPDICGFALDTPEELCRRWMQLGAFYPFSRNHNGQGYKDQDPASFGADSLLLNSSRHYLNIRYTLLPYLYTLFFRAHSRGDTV

[6] = read-out: Ki PPA (Porcine pancreatic α-amylase)
[7] = read-out: Ki AMY1 (Barley α-amylase)

T4 sequence (P00693 25-438): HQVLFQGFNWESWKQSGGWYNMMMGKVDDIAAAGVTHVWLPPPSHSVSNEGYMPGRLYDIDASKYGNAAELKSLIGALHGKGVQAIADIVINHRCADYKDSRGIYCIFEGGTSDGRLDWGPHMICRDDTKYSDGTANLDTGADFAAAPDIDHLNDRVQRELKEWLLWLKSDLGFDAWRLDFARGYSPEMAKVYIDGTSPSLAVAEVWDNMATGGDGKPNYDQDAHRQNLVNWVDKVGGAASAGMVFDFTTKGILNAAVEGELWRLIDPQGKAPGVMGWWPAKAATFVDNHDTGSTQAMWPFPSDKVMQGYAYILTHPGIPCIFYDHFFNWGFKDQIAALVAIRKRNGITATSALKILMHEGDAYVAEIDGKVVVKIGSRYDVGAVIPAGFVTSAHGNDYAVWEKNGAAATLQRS
T2 sequence (P69328 other isoform, or with tags, fused parts or gaps): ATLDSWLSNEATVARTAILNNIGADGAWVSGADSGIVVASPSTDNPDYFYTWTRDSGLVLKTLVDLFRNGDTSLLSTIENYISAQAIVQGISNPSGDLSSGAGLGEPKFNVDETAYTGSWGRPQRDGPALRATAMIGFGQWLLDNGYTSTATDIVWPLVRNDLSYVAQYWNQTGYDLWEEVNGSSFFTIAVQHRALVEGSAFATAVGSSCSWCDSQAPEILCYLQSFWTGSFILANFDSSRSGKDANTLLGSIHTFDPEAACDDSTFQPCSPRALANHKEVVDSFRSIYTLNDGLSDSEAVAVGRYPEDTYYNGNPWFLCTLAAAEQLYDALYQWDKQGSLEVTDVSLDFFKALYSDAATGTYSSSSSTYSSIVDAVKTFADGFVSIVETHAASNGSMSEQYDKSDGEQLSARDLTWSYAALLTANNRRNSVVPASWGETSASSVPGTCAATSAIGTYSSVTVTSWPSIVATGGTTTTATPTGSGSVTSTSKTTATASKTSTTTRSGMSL

inhibitory activity against recombinant human MGA (in words) [1]: not effective inhibitors
SMILES: O=S(=O)([O-])O[C@@H](CO)[C@H](O)C[S@+]1C[C@@H](O)[C@@H](O)[C@H]1CO [Compound 233, 1,4-Dideoxy-1,4-[[(2S,3S)-2,4-dihydroxy-3-(sulfooxy)butyl]-(S)-episulfoniumylidene]-D-lyxitol Inner Salt]

Ki [1]: 0.17 µM
SMILES: O=S(=O)([O-])O[C@@H]([C@H](O)CO)[C@H](O)C[S@+]1C[C@@H](O)[C@H](O)[C@H]1CO [Compound 97, 1,4-Dideoxy-1,4-[[2S,3S,4R-2,4,5-trihydroxy-3-(sulfooxy)pentyl]episufonium-ylidene]-D-arabinitol]

Ki [1]: 26 µM
SMILES: O=S(=O)(O)OC(C(O)CN1CC(O)C(O)C1CO)C(O)C(O)CO (single isomer, unassigned) [Compound 193]

IC50 [1]: 30 µM
SMILES: O=S(=O)(O)OC(C(O)CN1CC(O)C(O)C1CO)C(O)C(O)CO (single isomer, unassigned) [Compound 255]

SMILES: O=S(=O)([O-])O[C@H](CO)[C@@H](O)C[S@@+]1C[C@H](O)[C@@H](O)[C@@H]1CO
Ki [2]: 2170 µM
Ki [3, 6]: > 5000 µM
Ki [4, 7]: > 5000 µM

IC50 [1]: 100 µM
SMILES: O=S(=O)(O)OC(C(O)CN1CC(O)C(O)C1CO)C(O)C(O)CO (single isomer, unassigned) [Compound 252]

SMILES: O=S(=O)(O)O[C@@H](CO)[C@H](O)CN1C[C@H](O)[C@@H](O)[C@H]1CO
Ki ([2]; read-out: Ki GA (Glucoamylase)): > 30000 µM
Ki [3, 6]: > 5000 µM
Ki [4, 7]: > 5000 µM

Ki [1]: 5 µM
SMILES: O=S(=O)(O)OC(C(O)CN1CC(O)C(O)C1CO)C(O)C(O)CO (single isomer, unassigned) [Compound 196]

SMILES: O=S(=O)([O-])O[C@H](CO)[C@@H](O)C[Se@+]1C[C@@H](O)[C@H](O)[C@H]1CO
Ki ([2]; read-out: Ki GA (Glucoamylase)): > 9000 µM
Ki [3]: > 5000 µM
Ki [4]: > 5000 µM

SMILES: OC1C[S+]2CCCC2[C@@H](O)C1O (stereo partly shown)
Ki ([2]; read-out: Ki GA (Glucoamylase)): 1320 µM
Ki [3, 6]: > 5000 µM
Ki [4, 7]: > 5000 µM

inhibitory activity against recombinant human MGA (in words) [1]: did not inhibit
SMILES: O=S(=O)([O-])O[C@@H]([C@H](O)C[S@+]1C[C@@H](O)[C@H](O)[C@H]1CO)[C@@H](O)CO [Compound 94, 1,4-Dideoxy-1,4-[[2S,3R,4S-2,4,5-trihydroxy-3-(sulfooxy)pentyl]episufonium-ylidene]-D-arabinitol]

inhibitory activity against recombinant human MGA (in words) [1]: active
SMILES: O=S(=O)([O-])O[C@@H]([C@H](O)[C@@H](O)CO)[C@H](O)C[S@+]1C[C@@H](O)[C@H](O)[C@H]1CO [Compound 96, 1,4-Dideoxy-1,4-[[2S,3S,4R,5S-2,4,5,6-tetrahydroxy-3-(sulfooxy)hexyl]episufonium-ylidene]-D-arabinitol]

SMILES: O=S(=O)([O-])O[C@H](CO)[C@@H](O)C[S@+]1C[C@@H](O)[C@H](O)[C@H]1CO
Ki [2]: 1060 µM
Ki [3, 6]: > 5000 µM
Ki [4, 7]: > 5000 µM

inhibitory activity against recombinant human MGA (in words) [1]: not active
SMILES: O=S(=O)([O-])OC(C(O)C[S+]1CC(O)C(O)C1CO)C(O)C(O)CO [Compound 192, 1,4-Dideoxy-1,4-[[(2R,3S,4R,5R)-2,4,5,6-tetrahydroxy-3-(sulfooxy)hexyl]-episulfoniumylidene]-D-arabinitol Inner Salt]

inhibition at 5 µM ([5]; 5 μM concentration, COS cell extracts containing MGA, read-out: percent inhibition of the breakdown of maltose): 4%
SMILES: C[C@H]1O[C@H](O[C@H]2[C@H](O)[C@@H](O)[C@@H](O[C@H]3[C@H](O)[C@@H](O)C(O)O[C@@H]3CO)O[C@@H]2CO)[C@H](O)[C@@H](O)[C@@H]1N[C@H]1C=C(CO)[C@@H](O)[C@H](O)[C@H]1O (stereo partly shown) [Acarbose]
time at which plasma glucose returned to basal (Sprague-Dawley rats): 90 min
15 minute glucose excursion from basal (Sprague-Dawley rats; mean ± SE, n=6): 34.2 ± 3.5 mg/dL
decrease of the 90 minute insulin AUC (Sprague-Dawley rats; versus Control): 49%

SMILES: O=S(=O)([O-])O[C@@H](CO)[C@H](O)C[S@+]1C[C@H](O)[C@@H](O)[C@H]1CO
Ki [2]: > 5000 µM
Ki [3, 6]: 52 µM
Ki [4, 7]: 109 µM

SMILES: O=S(=O)(O)O[C@@H](CO)[C@H](O)CN1C[C@@H](O)[C@H](O)[C@H]1CO
Ki ([2]; read-out: Ki GA (Glucoamylase)): > 2500 µM
Ki [3, 6]: > 5000 µM
Ki [4, 7]: > 5000 µM
Ki MGA (Human intestinal maltase glucoamylase) ([5]; only the order of magnitude of activity (nM, μM, mM) or n.a. = not active): mM

inhibitory activity against recombinant human MGA (in words) [1]: active
SMILES: O=S(=O)([O-])O[C@H]([C@H](O)[C@@H](O)CO)[C@H](O)C[S@+]1C[C@@H](O)[C@H](O)[C@H]1CO [Compound 95, 1,4-Dideoxy-1,4-[[2S,3R,4R,5S-2,4,5,6-tetrahydroxy-3-(sulfooxy)hexyl]episufonium-ylidene]-D-arabinitol]

inhibitory activity against recombinant human MGA (in words) [1]: not effective inhibitors
SMILES: O=S(=O)([O-])O[C@@H](CO)[C@H](O)C[S@+]1C[C@H](O)[C@H](O)[C@H]1CO [Compound 234, 1,4-Dideoxy-1,4-[[(2S,3S)-2,4-dihydroxy-3-(sulfooxy)butyl]-(R)-episulfoniumylidene]-D-ribitol Inner Salt]
